# Measurements published in patent publication US8741944B2, “Anti-infective agents against intracellular pathogens” (priority 2007, dated 2014).
# Where two headings read alike, the source gives them in different places.
# Key:
# [1] = test system: EKVX (Non-Small Cell Lung Cancer); experiment: NCI DTP tumor cell line screen (SRB), EKVX
# Experimental: (§1) For a typical screening experiment, cells are inoculated into 96 well microtiter plates in 100 μL at plating densities ranging from 5,000 to 40,000 cells/well depending on the doubling time of individual cell lines. After cell inoculation, the microtiter plates are incubated at 37° C., 5% CO2, 95% air and 100% relative humidity for 24 h prior to addition of experimental drugs.
# (§2) After 24 h, two plates of each cell line are fixed in situ with TCA, to represent a measurement of the cell population for each cell line at the time of drug addition (Tz). Experimental drugs are solubilized in dimethyl sulfoxide at 400-fold the desired final maximum test concentration and stored frozen prior to use. At the time of drug addition, an aliquot of frozen concentrate is thawed and diluted to twice the desired final maximum test concentration with complete medium containing 50 μg/ml gentamicin. Additional four, 10-fold or ½ log serial dilutions are made to provide a total of five drug concentrations plus control. Aliquots of 100 μl of these different drug dilutions are added to the appropriate microtiter wells already containing 100 μl of medium, resulting in the required final drug concentrations.
# (§3) Following drug addition, the plates are incubated for an additional 48 h at 37° C., 5% CO2, 95% air, and 100% relative humidity. For adherent cells, the assay is terminated by the addition of cold TCA. Cells are fixed in situ by the gentle addition of 50 μl of cold 50% (w/v) TCA (final concentration, 10% TCA) and incubated for 60 minutes at 4° C. The supernatant is discarded, and the plates are washed five times with tap water and air dried. Sulforhodamine B (SRB) solution (1001) at 0.4% (w/v) in 1% acetic acid is added to each well, and plates are incubated for 10 minutes at room temperature. After staining, unbound dye is removed by washing five times with 1% acetic acid and the plates are air dried. Bound stain is subsequently solubilized with 10 mM trizma base, and the absorbance is read on an automated plate reader at a wavelength of 515 nm. For suspension cells, the methodology is the same except that the assay is terminated by fixing settled cells at the bottom of the wells by gently adding 50 μl of 80% TCA (final concentration, 16% TCA). Using the seven absorbance measurements [time zero, (Tz), control growth, (C), and test growth in the presence of drug at the five concentration levels (Ti)], the percentage growth is calculated at each of the drug concentrations levels. Percentage growth inhibition is calculated as: [(Ti−Tz)/(C−Tz)]×100 for concentrations for which Ti>/=Tz [(Ti−Tz)/Tz]×100 for concentrations for which Ti<Tz
# (§4) Three dose response parameters are calculated for each experimental agent. […] The drug concentration resulting in total growth inhibition (TGI) is calculated from Ti=Tz. […] Values are calculated for each of these three parameters if the level of activity is reached; however, if the effect is not reached or is exceeded, the value for that parameter is expressed as greater or less than the maximum or minimum concentration tested.
# KM12 (Colon Cancer) = experiment: NCI DTP tumor cell line screen (SRB), KM12
# Experimental: as §1, §2, §3, §4
# K-562 (Leukemia) = experiment: NCI DTP tumor cell line screen (SRB), K-562
# Experimental: as §1, §2, §3, §4
# SN12C (Renal Cancer) = experiment: NCI DTP tumor cell line screen (SRB), SN12C
# Experimental: as §1, §2, §3, §4
# T-47D (Breast Cancer) = experiment: NCI DTP tumor cell line screen (SRB), T-47D
# Experimental: as §1, §2, §3, §4
# MOLT-4 (Leukemia) = experiment: NCI DTP tumor cell line screen (SRB), MOLT-4
# Experimental: as §1, §2, §3, §4
# HCT-15 (Colon Cancer) = experiment: NCI DTP tumor cell line screen (SRB), HCT-15; conditions: HCT-15
# Experimental: as §1, §2, §3, §4
# CAKI-1 (Renal Cancer) = experiment: NCI DTP tumor cell line screen (SRB), CAKI-1
# Experimental: as §1, §2, §3, §4
# HCT-116 (Colon Cancer) = experiment: NCI DTP tumor cell line screen (SRB), HCT-116
# Experimental: as §1, §2, §3, §4
# OVCAR-3 (Ovarian Cancer) = experiment: NCI DTP tumor cell line screen (SRB), OVCAR-3
# Experimental: as §1, §2, §3, §4
# OVCAR-8 (Ovarian Cancer) = experiment: NCI DTP tumor cell line screen (SRB), OVCAR-8; conditions: OVCAR-8
# Experimental: as §1, §2, §3, §4
# CCRF-CEM (Leukemia) = experiment: NCI DTP tumor cell line screen (SRB), CCRF-CEM
# Experimental: as §1, §2, §3, §4
# [2] = test system: NCI-H460 (Non-Small Cell Lung Cancer)
# Experimental: as §1, §2, §3, §4
# LOX IMVI (Melanoma) = experiment: NCI DTP tumor cell line screen (SRB), LOX IMVI
# Experimental: as §1, §2, §3, §4
# MALME-3M (Melanoma) = experiment: NCI DTP tumor cell line screen (SRB), MALME-3M
# Experimental: as §1, §2, §3, §4
# [3] = test system: sixty human tumor cell lines; experiment: NCI DTP sixty human tumor cell line screen (SRB), means over the panel
structure (smiles),measurement,setting,value
"NCC(=O)Nc1ccc(-n2nc(C(F)(F)F)cc2-c2ccc3c(ccc4ccccc43)c2)cc1 [Compound 70, 2-Amino-N-{4-[5-(2-phenanthrenyl)-3-(trifluoromethyl)-1H-pyrazol-1-yl]-phenyl}-acetamide]",TGI,[1],3.25E−06
same,Mean Optical Densities,[1]; Log10 Concentration −4.0,0.193
same,Mean Optical Densities,[1]; Log10 Concentration −5.0,0.156
same,Percent Growth,[1]; Log10 Concentration −5.0,−72%
same,Mean Optical Densities,[1]; Log10 Concentration −6.0,0.786
same,Percent Growth,[1]; Log10 Concentration −6.0,75%
same,Mean Optical Densities,[1]; Log10 Concentration −7.0,0.860
same,Percent Growth,[1]; Log10 Concentration −7.0,100%
same,Mean Optical Densities,[1]; Log10 Concentration −8.0,0.891
same,Percent Growth,[1]; Log10 Concentration −8.0,110%
same,TGI,KM12 (Colon Cancer),2.67E−06
same,Mean Optical Densities,KM12 (Colon Cancer); Log10 Concentration −4.0,0.264
same,Mean Optical Densities,KM12 (Colon Cancer); Log10 Concentration −5.0,0.146
same,Percent Growth,KM12 (Colon Cancer); Log10 Concentration −5.0,−73%
same,Mean Optical Densities,KM12 (Colon Cancer); Log10 Concentration −6.0,1.425
same,Percent Growth,KM12 (Colon Cancer); Log10 Concentration −6.0,54%
same,Mean Optical Densities,KM12 (Colon Cancer); Log10 Concentration −7.0,2.044
same,Percent Growth,KM12 (Colon Cancer); Log10 Concentration −7.0,91%
same,Mean Optical Densities,KM12 (Colon Cancer); Log10 Concentration −8.0,2.151
same,Percent Growth,KM12 (Colon Cancer); Log10 Concentration −8.0,98%
same,TGI,K-562 (Leukemia),3.34E−06
same,Mean Optical Densities,K-562 (Leukemia); Log10 Concentration −4.0,0.247
same,Mean Optical Densities,K-562 (Leukemia); Log10 Concentration −5.0,0.209
same,Percent Growth,K-562 (Leukemia); Log10 Concentration −5.0,−30%
same,Mean Optical Densities,K-562 (Leukemia); Log10 Concentration −6.0,0.681
same,Percent Growth,K-562 (Leukemia); Log10 Concentration −6.0,33%
same,Mean Optical Densities,K-562 (Leukemia); Log10 Concentration −7.0,1.022
same,Percent Growth,K-562 (Leukemia); Log10 Concentration −7.0,62%
same,Mean Optical Densities,K-562 (Leukemia); Log10 Concentration −8.0,1.435
same,Percent Growth,K-562 (Leukemia); Log10 Concentration −8.0,97%
same,TGI,SN12C (Renal Cancer),3.51E−06
same,Mean Optical Densities,SN12C (Renal Cancer); Log10 Concentration −4.0,0.308
same,Mean Optical Densities,SN12C (Renal Cancer); Log10 Concentration −5.0,0.203
same,Percent Growth,SN12C (Renal Cancer); Log10 Concentration −5.0,−65%
same,Mean Optical Densities,SN12C (Renal Cancer); Log10 Concentration −6.0,1.093
same,Percent Growth,SN12C (Renal Cancer); Log10 Concentration −6.0,78%
same,Mean Optical Densities,SN12C (Renal Cancer); Log10 Concentration −7.0,1.194
same,Percent Growth,SN12C (Renal Cancer); Log10 Concentration −7.0,94%
same,Mean Optical Densities,SN12C (Renal Cancer); Log10 Concentration −8.0,1.209
same,Percent Growth,SN12C (Renal Cancer); Log10 Concentration −8.0,96%
same,TGI,T-47D (Breast Cancer),4.21E−06
same,Mean Optical Densities,T-47D (Breast Cancer); Log10 Concentration −4.0,0.238
same,Mean Optical Densities,T-47D (Breast Cancer); Log10 Concentration −5.0,0.205
same,Percent Growth,T-47D (Breast Cancer); Log10 Concentration −5.0,−52%
same,Mean Optical Densities,T-47D (Breast Cancer); Log10 Concentration −6.0,0.935
same,Percent Growth,T-47D (Breast Cancer); Log10 Concentration −6.0,86%
same,Mean Optical Densities,T-47D (Breast Cancer); Log10 Concentration −7.0,1.071
same,Percent Growth,T-47D (Breast Cancer); Log10 Concentration −7.0,109%
same,Mean Optical Densities,T-47D (Breast Cancer); Log10 Concentration −8.0,0.921
same,Percent Growth,T-47D (Breast Cancer); Log10 Concentration −8.0,84%
same,TGI,MOLT-4 (Leukemia),3.10E−06
same,Mean Optical Densities,MOLT-4 (Leukemia); Log10 Concentration −4.0,0.296
same,Mean Optical Densities,MOLT-4 (Leukemia); Log10 Concentration −5.0,0.180
same,Percent Growth,MOLT-4 (Leukemia); Log10 Concentration −5.0,−42%
same,Mean Optical Densities,MOLT-4 (Leukemia); Log10 Concentration −6.0,0.614
same,Percent Growth,MOLT-4 (Leukemia); Log10 Concentration −6.0,41%
same,Mean Optical Densities,MOLT-4 (Leukemia); Log10 Concentration −7.0,0.951
same,Percent Growth,MOLT-4 (Leukemia); Log10 Concentration −7.0,87%
same,Mean Optical Densities,MOLT-4 (Leukemia); Log10 Concentration −8.0,0.964
same,Percent Growth,MOLT-4 (Leukemia); Log10 Concentration −8.0,89%
same,TGI,HCT-15 (Colon Cancer),3.19E−06
same,Mean Optical Densities,HCT-15 (Colon Cancer); Log10 Concentration −5.0,0.149
same,Percent Growth,HCT-15 (Colon Cancer); Log10 Concentration −5.0,−47%
same,Mean Optical Densities,HCT-15 (Colon Cancer); Log10 Concentration −6.0,0.561
same,Percent Growth,HCT-15 (Colon Cancer); Log10 Concentration −6.0,47%
same,Mean Optical Densities,HCT-15 (Colon Cancer); Log10 Concentration −7.0,0.599
same,Percent Growth,HCT-15 (Colon Cancer); Log10 Concentration −7.0,54%
same,Mean Optical Densities,HCT-15 (Colon Cancer); Log10 Concentration −8.0,0.760
same,Percent Growth,HCT-15 (Colon Cancer); Log10 Concentration −8.0,81%
same,TGI,CAKI-1 (Renal Cancer),2.27E−06
same,Mean Optical Densities,CAKI-1 (Renal Cancer); Log10 Concentration −4.0,0.335
same,Mean Optical Densities,CAKI-1 (Renal Cancer); Log10 Concentration −5.0,0.147
same,Percent Growth,CAKI-1 (Renal Cancer); Log10 Concentration −5.0,−75%
same,Mean Optical Densities,CAKI-1 (Renal Cancer); Log10 Concentration −6.0,1.126
same,Percent Growth,CAKI-1 (Renal Cancer); Log10 Concentration −6.0,42%
same,Mean Optical Densities,CAKI-1 (Renal Cancer); Log10 Concentration −7.0,1.802
same,Percent Growth,CAKI-1 (Renal Cancer); Log10 Concentration −7.0,95%
same,Mean Optical Densities,CAKI-1 (Renal Cancer); Log10 Concentration −8.0,1.692
same,Percent Growth,CAKI-1 (Renal Cancer); Log10 Concentration −8.0,87%
same,Mean Optical Densities,HCT-116 (Colon Cancer); Log10 Concentration −4.0,0.146
same,Mean Optical Densities,HCT-116 (Colon Cancer); Log10 Concentration −5.0,0.104
same,Percent Growth,HCT-116 (Colon Cancer); Log10 Concentration −5.0,−9%
same,Mean Optical Densities,HCT-116 (Colon Cancer); Log10 Concentration −6.0,0.452
same,Percent Growth,HCT-116 (Colon Cancer); Log10 Concentration −6.0,57%
same,Mean Optical Densities,HCT-116 (Colon Cancer); Log10 Concentration −7.0,0.665
same,Percent Growth,HCT-116 (Colon Cancer); Log10 Concentration −7.0,93%
same,Mean Optical Densities,HCT-116 (Colon Cancer); Log10 Concentration −8.0,0.751
same,Percent Growth,HCT-116 (Colon Cancer); Log10 Concentration −8.0,107%
same,TGI,OVCAR-3 (Ovarian Cancer),3.32E−06
same,Mean Optical Densities,OVCAR-3 (Ovarian Cancer); Log10 Concentration −4.0,0.301
same,Mean Optical Densities,OVCAR-3 (Ovarian Cancer); Log10 Concentration −5.0,0.140
same,Percent Growth,OVCAR-3 (Ovarian Cancer); Log10 Concentration −5.0,−70%
same,Mean Optical Densities,OVCAR-3 (Ovarian Cancer); Log10 Concentration −6.0,0.816
same,Percent Growth,OVCAR-3 (Ovarian Cancer); Log10 Concentration −6.0,76%
same,Mean Optical Densities,OVCAR-3 (Ovarian Cancer); Log10 Concentration −7.0,0.849
same,Percent Growth,OVCAR-3 (Ovarian Cancer); Log10 Concentration −7.0,83%
same,Mean Optical Densities,OVCAR-3 (Ovarian Cancer); Log10 Concentration −8.0,0.879
same,Percent Growth,OVCAR-3 (Ovarian Cancer); Log10 Concentration −8.0,89%
same,TGI,OVCAR-8 (Ovarian Cancer),4.05E−06
same,Mean Optical Densities,OVCAR-8 (Ovarian Cancer); Log10 Concentration −4.0,0.306
same,Mean Optical Densities,OVCAR-8 (Ovarian Cancer); Log10 Concentration −5.0,0.269
same,Percent Growth,OVCAR-8 (Ovarian Cancer); Log10 Concentration −5.0,−33%
same,Mean Optical Densities,OVCAR-8 (Ovarian Cancer); Log10 Concentration −6.0,0.755
same,Percent Growth,OVCAR-8 (Ovarian Cancer); Log10 Concentration −6.0,51%
same,Mean Optical Densities,OVCAR-8 (Ovarian Cancer); Log10 Concentration −7.0,1.114
same,Percent Growth,OVCAR-8 (Ovarian Cancer); Log10 Concentration −7.0,102%
same,Mean Optical Densities,OVCAR-8 (Ovarian Cancer); Log10 Concentration −8.0,1.078
same,Percent Growth,OVCAR-8 (Ovarian Cancer); Log10 Concentration −8.0,97%
same,TGI,CCRF-CEM (Leukemia),2.49E−06
same,Mean Optical Densities,CCRF-CEM (Leukemia); Log10 Concentration −4.0,0.194
same,Mean Optical Densities,CCRF-CEM (Leukemia); Log10 Concentration −5.0,0.168
same,Percent Growth,CCRF-CEM (Leukemia); Log10 Concentration −5.0,−43%
same,Mean Optical Densities,CCRF-CEM (Leukemia); Log10 Concentration −6.0,0.523
same,Percent Growth,CCRF-CEM (Leukemia); Log10 Concentration −6.0,28%
same,Mean Optical Densities,CCRF-CEM (Leukemia); Log10 Concentration −7.0,0.946
same,Percent Growth,CCRF-CEM (Leukemia); Log10 Concentration −7.0,81%
same,Percent Growth,CCRF-CEM (Leukemia); Log10 Concentration −8.0,74%
same,TGI,[2],2.64E−06
same,Mean Optical Densities,[2]; Log10 Concentration −4.0,0.213
same,Mean Optical Densities,[2]; Log10 Concentration −5.0,0.173
same,Mean Optical Densities,[2]; Log10 Concentration −6.0,0.830
same,Percent Growth,[2]; Log10 Concentration −6.0,34%
same,Mean Optical Densities,[2]; Log10 Concentration −7.0,1.499
same,Percent Growth,[2]; Log10 Concentration −7.0,77%
same,Mean Optical Densities,[2]; Log10 Concentration −8.0,1.799
same,Percent Growth,[2]; Log10 Concentration −8.0,97%
same,TGI,LOX IMVI (Melanoma),3.07E−06
same,Mean Optical Densities,LOX IMVI (Melanoma); Log10 Concentration −4.0,0.352
same,Mean Optical Densities,LOX IMVI (Melanoma); Log10 Concentration −5.0,0.176
same,Percent Growth,LOX IMVI (Melanoma); Log10 Concentration −5.0,−50%
same,Mean Optical Densities,LOX IMVI (Melanoma); Log10 Concentration −6.0,0.742
same,Percent Growth,LOX IMVI (Melanoma); Log10 Concentration −6.0,48%
same,Mean Optical Densities,LOX IMVI (Melanoma); Log10 Concentration −7.0,0.974
same,Percent Growth,LOX IMVI (Melanoma); Log10 Concentration −7.0,76%
same,Mean Optical Densities,LOX IMVI (Melanoma); Log10 Concentration −8.0,1.204
same,Percent Growth,LOX IMVI (Melanoma); Log10 Concentration −8.0,105%
same,TGI,MALME-3M (Melanoma),3.67E−06
same,Mean Optical Densities,MALME-3M (Melanoma); Log10 Concentration −4.0,0.290
same,Mean Optical Densities,MALME-3M (Melanoma); Log10 Concentration −5.0,0.218
same,Mean Optical Densities,MALME-3M (Melanoma); Log10 Concentration −6.0,1.102
same,Mean Optical Densities,MALME-3M (Melanoma); Log10 Concentration −7.0,1.128
same,concentration range completely suppressing cell growth in a diverse range of tumor cell lines,[3],3 to 5 µM
same,GI50,"[3]; read-out: mean GI50 among the sixty cell lines, two-day treatment",1200 nM
same,mean TGI among the sixty cell lines,[3]; two-day treatment,3200 nM
